Drawing on patent publication US9452986B2, “6-heteroaryloxy- or 6-aryloxy-quinoline-2-carboxamides and method of use” (AbbVie Inc., priority 2014, dated 2016), this text covers IC50 and inhibition in vivo for 23 compounds.

The IC50 is the midpoint of a concentration-inhibition curve.

One assay has as its target recombinant human Nav1.7 (Homo sapiens (Human), UniProt Q15858). The assay can be described thus: FRET-based membrane potential assay, recombinant human sodium channel Nav1.7. The format is cell-based. The essentials:
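Channel activation used veratridine at its EC80, set by a dilution curve each experiment, together with Leiurus scorpion venom, added 3 min after compound. Membrane-potential ratio signals from FLIPR Tetra in HEPES-buffered HBSS were fitted to a four-parameter Hill equation for percent inhibition and IC50.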

For a further assay, the target named is recombinant human Nav1.8 (Homo sapiens (Human), UniProt Q9Y5Y9). Description: FRET-based membrane potential assay, recombinant human sodium channel Nav1.8. The format is cell-based.
recombinant human Nav1.8, sequence (Q9Y5Y9 whole entry): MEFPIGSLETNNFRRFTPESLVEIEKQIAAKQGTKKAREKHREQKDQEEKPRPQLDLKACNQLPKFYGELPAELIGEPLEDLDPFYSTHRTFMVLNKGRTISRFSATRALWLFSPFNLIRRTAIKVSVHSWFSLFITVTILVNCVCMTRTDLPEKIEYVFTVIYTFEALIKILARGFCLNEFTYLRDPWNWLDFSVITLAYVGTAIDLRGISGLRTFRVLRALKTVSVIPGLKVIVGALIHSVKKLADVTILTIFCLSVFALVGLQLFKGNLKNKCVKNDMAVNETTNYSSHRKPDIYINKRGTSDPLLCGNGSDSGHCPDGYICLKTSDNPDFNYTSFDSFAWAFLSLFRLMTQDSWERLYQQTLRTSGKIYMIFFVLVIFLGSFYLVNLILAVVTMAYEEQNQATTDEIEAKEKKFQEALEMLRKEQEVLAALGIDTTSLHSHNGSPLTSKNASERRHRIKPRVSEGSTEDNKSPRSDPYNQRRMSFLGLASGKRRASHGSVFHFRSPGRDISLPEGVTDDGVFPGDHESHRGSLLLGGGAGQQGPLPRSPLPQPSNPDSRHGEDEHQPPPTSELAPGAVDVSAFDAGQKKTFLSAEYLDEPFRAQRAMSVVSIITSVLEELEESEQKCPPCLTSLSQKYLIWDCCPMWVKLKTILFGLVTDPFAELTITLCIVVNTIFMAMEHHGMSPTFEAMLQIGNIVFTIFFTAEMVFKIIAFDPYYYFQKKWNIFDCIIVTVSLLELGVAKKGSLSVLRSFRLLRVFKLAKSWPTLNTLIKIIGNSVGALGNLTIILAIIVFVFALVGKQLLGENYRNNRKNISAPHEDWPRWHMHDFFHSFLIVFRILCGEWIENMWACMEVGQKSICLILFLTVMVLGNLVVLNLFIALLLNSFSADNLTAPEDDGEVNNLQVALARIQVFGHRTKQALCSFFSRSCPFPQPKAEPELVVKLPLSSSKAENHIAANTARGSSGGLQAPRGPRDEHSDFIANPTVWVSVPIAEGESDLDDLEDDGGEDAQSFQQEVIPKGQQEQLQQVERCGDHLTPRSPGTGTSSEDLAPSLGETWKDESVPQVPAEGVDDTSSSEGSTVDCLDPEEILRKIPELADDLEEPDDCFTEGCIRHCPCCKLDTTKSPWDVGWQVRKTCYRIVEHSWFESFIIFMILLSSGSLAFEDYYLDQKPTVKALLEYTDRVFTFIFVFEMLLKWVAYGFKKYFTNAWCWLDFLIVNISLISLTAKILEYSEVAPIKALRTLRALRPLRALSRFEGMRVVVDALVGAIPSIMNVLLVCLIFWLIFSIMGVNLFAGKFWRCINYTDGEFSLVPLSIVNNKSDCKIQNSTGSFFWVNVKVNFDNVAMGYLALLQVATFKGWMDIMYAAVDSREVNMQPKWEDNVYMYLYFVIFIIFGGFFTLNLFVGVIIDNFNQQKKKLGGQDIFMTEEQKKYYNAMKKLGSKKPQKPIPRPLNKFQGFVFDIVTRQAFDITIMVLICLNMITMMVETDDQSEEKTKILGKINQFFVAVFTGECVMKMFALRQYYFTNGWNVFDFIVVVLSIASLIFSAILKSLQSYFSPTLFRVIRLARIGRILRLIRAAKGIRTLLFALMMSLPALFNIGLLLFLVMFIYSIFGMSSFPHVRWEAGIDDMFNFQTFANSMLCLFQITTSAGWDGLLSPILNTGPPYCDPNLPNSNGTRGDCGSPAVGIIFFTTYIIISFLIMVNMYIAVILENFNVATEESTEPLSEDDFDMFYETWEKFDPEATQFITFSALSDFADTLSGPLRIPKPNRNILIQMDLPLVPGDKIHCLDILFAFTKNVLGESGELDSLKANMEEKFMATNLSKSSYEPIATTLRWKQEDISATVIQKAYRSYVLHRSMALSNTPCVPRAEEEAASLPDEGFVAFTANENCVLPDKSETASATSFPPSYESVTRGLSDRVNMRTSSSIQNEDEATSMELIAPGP
Another assay relates to osteoarthritic rats. The assay can be described thus: Osteoarthritic (OA) pain induced by sodium monoiodoacetate (MIA), hind limb grip force. The format is in vivo, rat. Particulars: Rattus norvegicus, 480 h, rat, 20 days following MIA injection, hind limb grip force, read-out: OA MPE; for inhibition in vivo at 30 mg/kg: OA dose 30 mg/kg; for inhibition in vivo at 10 mg/kg: OA dose 10 mg/kg. On the procedure: Osteoarthritic (OA) Pain Induced by Sodium Monoiodoacetate (MIA)
Pain behavior was assessed by measurement of hind limb grip force (GF) in adult osteoarthritic rats. Male Sprague Dawley rats, obtained from Charles River Laboratories, (Wilmington, Mass.), weighing 150-175 g, were injected in the unilateral knee join with a single intra-articular injection of sodium monoiodoacetate (MIA, 3 mg/rat). All rats were tested at 20 days following MIA injection. A behavioral measure of activity-induced pain was carried out. Measurements of the peak hind limb grip force were conducted by recording the maximum compressive force (CFmax), in grams of force, exerted on a hind limb strain gauge setup, in a commercially available grip force measurement system (Columbus Instruments, Columbus, Ohio).
During testing, each rat was gently restrained by grasping it around its rib cage and then allowed to grasp the wire mesh frame attached to the strain gauge. The experimenter then moved the animal in a rostral-to-caudal direction until the grip was broken. Each rat was sequentially tested twice at an approximately 2-3 minute interval to obtain a raw mean grip force (CFmax). This raw mean grip force data was in turn converted to a maximum hindlimb cumulative compressive force (CFmax), as the grams of force/kg of body weight, for each animal.
For evaluating the compound effects, the hind limb grip force was conducted 20 days following the intra-articular injection of MIA. A group of age-matched naïve (not injected with MIA) animals was added as a comparator to the drug-dosed groups. The vehicle control response for each group of MIA-treated animals was defined as the 0% response (0% effect), whereas the naïve control group was defined as the normal response and as 100% effect. The % effect for each dose group was expressed as % return of response to normalcy, compared to the naïve group. A percent maximal possible effect (% MPE) of testing compound was calculated according to the formula: (Treatment CFmax−Vehicle CFmax)/Vehicle CFmax]×100). Higher % effect numbers indicate increased relief from the pain in the model, with 100% indicating a return to the level of response seen in normal (non-osteoarthritic) animals. All experiments evaluating drug effects in this model were conducted in a randomized blinded fashion.
The animals were housed in Association for Assessment and Accreditation of Laboratory Animal Care (AAALAC) approved facilities at AbbVie Inc. in a temperature-regulated environment under a controlled 12-hour light-dark cycle, with lights on at 6:00 a.m. Food and water were available ad libitum at all times except during testing. All testing was done following procedures outlined in protocols approved by AbbVie Inc.'s Institutional Animal Care and Use Committee.

Where [1] appears, read: HEK293 cells stably expressing recombinant human Nav1.8, veratridine + scorpion venom depolarization.
[2] abbreviates: HEK293 cells stably expressing recombinant human Nav1.7, veratridine + scorpion venom depolarization, read-out: FRET-Membrane Potential Nav1.7 IC50.
Setting [3] is: read-out: FRET-Membrane Potential Nav1.7 IC50.

Like-named read-outs stand apart in the source and are kept apart here.

recombinant human Nav1.7, sequence (Q15858 whole entry): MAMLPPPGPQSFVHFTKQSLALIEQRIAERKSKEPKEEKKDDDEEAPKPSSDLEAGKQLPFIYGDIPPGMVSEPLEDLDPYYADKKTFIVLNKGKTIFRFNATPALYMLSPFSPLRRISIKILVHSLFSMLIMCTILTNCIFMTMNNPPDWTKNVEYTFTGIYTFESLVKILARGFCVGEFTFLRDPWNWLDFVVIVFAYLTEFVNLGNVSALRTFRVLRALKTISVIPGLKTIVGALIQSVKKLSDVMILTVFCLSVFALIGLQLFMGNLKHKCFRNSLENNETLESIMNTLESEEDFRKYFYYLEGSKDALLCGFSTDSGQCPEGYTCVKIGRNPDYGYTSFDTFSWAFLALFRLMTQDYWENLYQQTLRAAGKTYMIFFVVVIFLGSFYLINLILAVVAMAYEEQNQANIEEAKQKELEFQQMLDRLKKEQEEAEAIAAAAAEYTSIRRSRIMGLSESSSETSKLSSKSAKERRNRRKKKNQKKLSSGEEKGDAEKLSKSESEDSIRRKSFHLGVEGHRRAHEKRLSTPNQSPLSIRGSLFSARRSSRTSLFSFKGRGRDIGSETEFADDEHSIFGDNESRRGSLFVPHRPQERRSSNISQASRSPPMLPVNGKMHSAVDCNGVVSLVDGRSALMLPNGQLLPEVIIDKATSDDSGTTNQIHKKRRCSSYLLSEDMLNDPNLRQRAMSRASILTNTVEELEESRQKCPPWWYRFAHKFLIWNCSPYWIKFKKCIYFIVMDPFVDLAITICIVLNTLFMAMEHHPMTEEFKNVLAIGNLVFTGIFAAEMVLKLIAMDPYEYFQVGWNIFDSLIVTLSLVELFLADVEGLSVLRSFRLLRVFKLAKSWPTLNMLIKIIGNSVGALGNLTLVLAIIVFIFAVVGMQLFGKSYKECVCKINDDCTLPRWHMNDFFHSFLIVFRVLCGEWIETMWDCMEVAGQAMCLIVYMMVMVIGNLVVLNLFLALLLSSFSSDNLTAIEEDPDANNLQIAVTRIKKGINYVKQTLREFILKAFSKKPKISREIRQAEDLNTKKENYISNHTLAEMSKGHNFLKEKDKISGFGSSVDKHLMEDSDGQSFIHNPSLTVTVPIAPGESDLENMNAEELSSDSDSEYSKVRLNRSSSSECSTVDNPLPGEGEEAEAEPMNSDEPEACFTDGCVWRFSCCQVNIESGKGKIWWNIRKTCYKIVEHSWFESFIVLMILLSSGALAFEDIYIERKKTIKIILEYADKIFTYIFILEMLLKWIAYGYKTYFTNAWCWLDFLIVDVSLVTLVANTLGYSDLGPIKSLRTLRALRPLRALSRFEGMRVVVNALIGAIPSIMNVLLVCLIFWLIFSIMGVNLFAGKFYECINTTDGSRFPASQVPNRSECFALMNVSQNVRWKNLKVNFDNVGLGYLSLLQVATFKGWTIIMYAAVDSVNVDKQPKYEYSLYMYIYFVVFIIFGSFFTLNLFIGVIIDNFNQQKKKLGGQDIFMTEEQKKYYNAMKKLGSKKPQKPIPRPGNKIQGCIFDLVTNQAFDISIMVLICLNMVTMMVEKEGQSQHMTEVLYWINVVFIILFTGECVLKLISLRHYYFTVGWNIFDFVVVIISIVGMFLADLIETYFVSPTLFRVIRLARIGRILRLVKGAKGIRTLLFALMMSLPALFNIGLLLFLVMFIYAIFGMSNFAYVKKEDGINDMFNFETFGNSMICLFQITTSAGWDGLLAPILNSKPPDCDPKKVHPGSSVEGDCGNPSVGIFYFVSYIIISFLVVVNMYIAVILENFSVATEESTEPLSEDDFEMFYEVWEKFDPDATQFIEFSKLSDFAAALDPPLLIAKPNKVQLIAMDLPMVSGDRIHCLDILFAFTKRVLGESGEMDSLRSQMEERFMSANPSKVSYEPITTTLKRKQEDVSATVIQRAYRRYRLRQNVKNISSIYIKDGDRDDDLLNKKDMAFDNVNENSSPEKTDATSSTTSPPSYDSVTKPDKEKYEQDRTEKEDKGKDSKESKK

Regarding `O=C(c1ccc2cc(Oc3ccc(C(F)(F)F)cn3)ccc2n1)N1CCNCC1C(F)F` (single isomer, unassigned) [Example 72, [(2S*)-2-(difluoromethyl)piperazin-1-yl](6-{[5-(trifluoromethyl)pyridin-2-yl]oxy}quinolin-2-yl)methanone], the IC50 was 2730 nM on recombinant human Nav1.7 (FRET-Membrane Potential Nav1.7 IC50) and 3840 nM at recombinant human Nav1.8 (setting [1]). Further, the inhibition in vivo at 30 mg/kg with osteoarthritic rats was 11%.
`O=C(NCC1CCO1)c1ccc2cc(Oc3ccc(C(F)(F)F)cn3)ccc2n1` (centres unmarked) [Example 37, N-(oxetan-2-ylmethyl)-6-{[5-(trifluoromethyl)pyridin-2-yl]oxy}quinoline-2-carboxamide]: the IC50 at recombinant human Nav1.7 (setting [2]) is 392 nM. The inhibition in vivo at 10 mg/kg with osteoarthritic rats was determined as 29%.
For the compound `C[C@@H](O)CNC(=O)c1ccc2cc(Oc3ccc(C(F)(F)F)cn3)ccc2n1` [Example 38, N-[(2R)-2-hydroxypropyl]-6-{[5-(trifluoromethyl)pyridin-2-yl]oxy}quinoline-2-carboxamide], at recombinant human Nav1.7 (setting [3]), the IC50 came out at 311 nM. In addition, the inhibition in vivo at 10 mg/kg with osteoarthritic rats was found to be 30%.
On to `O=C(c1ccc2cc(Oc3ccc(C(F)(F)F)cn3)ccc2n1)N1CCNC2(CC2)C1` [Example 39, 4,7-diazaspiro[2.5]oct-7-yl(6-{[5-(trifluoromethyl)pyridin-2-yl]oxy}quinolin-2-yl)methanone], for which the concentration for half-maximal inhibition (IC50) on recombinant human Nav1.7 (setting [2]) was 735 nM. Besides, the inhibition in vivo at 30 mg/kg in the assay with osteoarthritic rats turned out to be 43%.
With `O=C1CC(NC(=O)c2ccc3cc(Oc4ccc(C(F)(F)F)cn4)ccc3n2)CCN1` (centres unmarked) [Example 40, N-(2-oxopiperidin-4-yl)-6-{[5-(trifluoromethyl)pyridin-2-yl]oxy}quinoline-2-carboxamide], the IC50 on recombinant human Nav1.7 (setting [3]) came to 285 nM. Also, the inhibition in vivo at 10 mg/kg in the assay with osteoarthritic rats was 59%.
Regarding `CO[C@H]1C[C@@H](NC(=O)c2ccc3cc(Oc4ccc(C(F)(F)F)cn4)ccc3n2)C1` [Example 41, N-(cis-3-methoxycyclobutyl)-6-{[5-(trifluoromethyl)pyridin-2-yl]oxy}quinoline-2-carboxamide], the IC50 on recombinant human Nav1.7 (setting [2]) is 1270 nM. Further, the inhibition in vivo at 10 mg/kg in the assay with osteoarthritic rats came out at 67%.
Take `CN(C)C(=O)CNC(=O)c1ccc2cc(Oc3ccc(C(F)(F)F)nc3)ccc2n1` [Example 42, N-[2-(dimethylamino)-2-oxoethyl]-6-{[6-(trifluoromethyl)pyridin-3-yl]oxy}quinoline-2-carboxamide]: the half-maximal inhibitory concentration (IC50) at recombinant human Nav1.7 (setting [2]) is 1790 nM. Further, the inhibition in vivo at 10 mg/kg with osteoarthritic rats was 64%.
The like results for `C[C@H]1CN(C(=O)c2ccc3cc(Oc4ccc(C(F)F)cn4)ccc3n2)CCN1` [Example 43, (6-{[5-(difluoromethyl)pyridin-2-yl]oxy}quinolin-2-yl) [(3S)-3-methylpiperazin-1-yl]methanone] were, in that order, 3060 nM and 71%.
As to `O=C(NCC(=O)N1CCCC1)c1ccc2cc(Oc3ccc(C(F)(F)F)cn3)ccc2n1` [Example 44, N-[2-oxo-2-(pyrrolidin-1-yl)ethyl]-6-{[5-(trifluoromethyl)pyridin-2-yl]oxy}quinoline-2-carboxamide], the IC50 on recombinant human Nav1.8 is 937 nM. For the same compound, in the assay with osteoarthritic rats, the inhibition in vivo at 10 mg/kg came to 42%.
Regarding `O=C(NC1CC(=O)N(c2ccc(F)cc2)C1)c1ccc2cc(Oc3ccc(C(F)(F)F)cn3)ccc2n1` (centres unmarked) [Example 54, N-[1-(4-fluorophenyl)-5-oxopyrrolidin-3-yl]-6-{[5-(trifluoromethyl)pyridin-2-yl]oxy}quinoline-2-carboxamide], the 50% inhibitory concentration (IC50) on recombinant human Nav1.7 (setting [2]) turned out to be 409 nM. Also, in the assay on osteoarthritic rats, the inhibition in vivo at 10 mg/kg worked out at 21%.
For `COCC1CN(C(=O)c2ccc3cc(Oc4ccc(C(F)(F)F)cn4)ccc3n2)C1` [Example 60, [3-(methoxymethyl)azetidin-1-yl](6-{[5-(trifluoromethyl)pyridin-2-yl]oxy}quinolin-2-yl)methanone], the concentration for half-maximal inhibition (IC50) on recombinant human Nav1.7 (setting [2]) came out at 1260 nM. The inhibition in vivo at 10 mg/kg in the assay with osteoarthritic rats came to 23%.
On to `O=C(c1ccc2cc(Oc3ccc(C(F)(F)F)cn3)ccc2n1)N1CCNCC(F)(F)C1` [Example 417, (6,6-difluoro-1,4-diazepan-1-yl)(6-{[5-(trifluoromethyl)pyridin-2-yl]oxy}quinolin-2-yl)methanone], for which the IC50 on recombinant human Nav1.7 (setting [3]) came to 11500 nM; on recombinant human Nav1.8 (setting [1]), 2750 nM.
In the case of `CN(C)C(=O)CNC(=O)c1ccc2cc(Oc3ccc(C(F)F)cn3)ccc2n1` [Example 441, 6-{[5-(difluoromethyl)pyridin-2-yl]oxy}-N-[2-(dimethylamino)-2-oxoethyl]quinoline-2-carboxamide], the IC50 at recombinant human Nav1.7 (setting [3]) turned out to be 1150 nM. In addition, the inhibition in vivo at 10 mg/kg in the assay on osteoarthritic rats amounted to 22%.
The matching figures for `N#CC1CN(C(=O)c2ccc3cc(Oc4ccc(C(F)(F)F)cn4)ccc3n2)CCN1` (centres unmarked) [Example 483, 4-[(6-{[5-(trifluoromethyl)pyridin-2-yl]oxy}quinolin-2-yl)carbonyl]piperazine-2-carbonitrile]: 3610 nM and 55%.
As for `O=C1C[C@@H](NC(=O)c2ccc3cc(Oc4ccc(C(F)(F)F)cn4)ccc3n2)CCN1` [Example 512, N-[(4S)-2-oxopiperidin-4-yl]-6-{[5-(trifluoromethyl)pyridin-2-yl]oxy}quinoline-2-carboxamide], the IC50 is 983 nM at recombinant human Nav1.7 (setting [3]) and 213 nM on recombinant human Nav1.8 (setting [1]).
The matching figures for `O=C1C[C@H](NC(=O)c2ccc3cc(Oc4ccc(C(F)(F)F)cn4)ccc3n2)CCN1` [Example 521, N-[(4R)-2-oxopiperidin-4-yl]-6-{[5-(trifluoromethyl)pyridin-2-yl]oxy}quinoline-2-carboxamide]: 2630 nM and 1100 nM.
The matching figures for `CN1CCC(N(C)C(=O)c2ccc3cc(Oc4ccc(C(F)(F)F)cn4)ccc3n2)CC1=O` (centres unmarked) [Example 529, N-methyl-N-(1-methyl-2-oxopiperidin-4-yl)-6-{[5-(trifluoromethyl)pyridin-2-yl]oxy}quinoline-2-carboxamide]: 10300 nM and above 20000 nM.
The matching figures for `O=C(NC1CC(F)(F)C1)c1ccc2cc(Oc3ccc(C(F)F)cn3)ccc2n1` [Example 580, N-(3,3-difluorocyclobutyl)-6-{[5-(difluoromethyl)pyridin-2-yl]oxy}quinoline-2-carboxamide]: 1560 nM and 1140 nM.
Regarding `O=C(c1ccc2cc(Oc3ccc(C(F)(F)F)cn3)ccc2n1)N1CCNC[C@@H]1C(F)F` [Example 603, [(2R)-2-(difluoromethyl)piperazin-1-yl](6-{[5-(trifluoromethyl)pyridin-2-yl]oxy}quinolin-2-yl)methanone], the results for the IC50 at recombinant human Nav1.7 (setting [3]) and at recombinant human Nav1.8 (setting [1]) were 1950 nM and 3670 nM, respectively.
For the compound `CN(CC(F)(F)F)C(=O)c1ccc2cc(Oc3ccc(C(F)(F)F)cn3)ccc2n1` [Example 616, N-methyl-N-(2,2,2-trifluoroethyl)-6-{[5-(trifluoromethyl)pyridin-2-yl]oxy}quinoline-2-carboxamide], the IC50 at recombinant human Nav1.7 (setting [2]) was 2630 nM. The inhibition in vivo at 30 mg/kg in the assay on osteoarthritic rats is 28%.
As to `O=C(c1ccc2cc(Oc3ccc(C(F)(F)F)cn3)ccc2n1)N1CC(NCC(F)(F)F)C1` [Example 621, {3-[(2,2,2-trifluoroethyl)amino]azetidin-1-yl}(6-{[5-(trifluoromethyl)pyridin-2-yl]oxy}quinolin-2-yl)methanone], the half-maximal inhibitory concentration (IC50) on recombinant human Nav1.7 (setting [2]) turned out to be 2690 nM; at recombinant human Nav1.8 (setting [1]), 1650 nM.
Take `CN(CC(F)F)C(=O)c1ccc2cc(Oc3ccc(C(F)(F)F)cn3)ccc2n1` [Example 622, N-(2,2-difluoroethyl)-N-methyl-6-{[5-(trifluoromethyl)pyridin-2-yl]oxy}quinoline-2-carboxamide]: the IC50 on recombinant human Nav1.7 (setting [3]) is 5400 nM; at recombinant human Nav1.8 (setting [1]) it was 2280 nM.
`O=C(c1ccc2cc(Oc3ccc(C(F)(F)F)cn3)ccc2n1)N1CC2(CCOCC2)C1` [Example 623, 7-oxa-2-azaspiro[3.5]non-2-yl(6-{[5-(trifluoromethyl)pyridin-2-yl]oxy}quinolin-2-yl)methanone]: the IC50 came to 4910 nM on recombinant human Nav1.7 (setting [2]) and 3700 nM at recombinant human Nav1.8 (setting [1]).
